In data set [1] the test system is diet-induced mouse model of NASH. To be noted: cited from earlier work.
For data set [2], the system named is PPARδ-regulated genes in C2C12 cells. The data set can be described thus: PPARδ-regulated gene expression in differentiated C2C12 cells (qRT-PCR). Format: cell-based, murine. To be noted: C2C12 myotubes, 1 μM, 8 h. Here is the method:
HepG2 cells (DSMZ) were grown in DMEM high glucose, supplemented with 10% FCS, 1 mM SP, penicillin (100 U/mL), and streptomycin (100 μg/mL) at 37 °C and 5% CO2 and seeded in 6-well plates (2 × 10^6 per well). After 24 h, medium was changed to Minimal Essential Medium supplemented with 1% charcoal-stripped FCS, penicillin (100 U/mL), streptomycin (100 μg/mL), and 2 mM L-glutamine. After an additional 24 h, cells were incubated with test compound 41 (0.1 µM, 0.3 µM, 1 μM), OCA (1 μM), or elafibranor (1 µM) dissolved in the same medium with 0.1% DMSO or medium with 0.1% DMSO alone as untreated control for 12 h, harvested, washed with cold phosphate-buffered saline (PBS), and then directly used for RNA extraction. C2C12 cells (American Type Culture Collection, ATCC) were grown in DMEM high glucose, supplemented with 10% FCS, 1 mM SP, penicillin (100 U/mL), and streptomycin (100 μg/mL) at 37 °C and 5% CO2 and seeded in 6-well plates (1 × 10^6 per well). […] FXR- and PPAR-regulated gene expression was then studied by quantitative real-time PCR (qRT-PCR) analysis with a StepOnePlus System (Life Technologies, Carlsbad, CA, USA) using PowerSYBRGreen (Life Technologies; 12.5 μL per well). […] Data were analyzed by the comparative ΔΔCT method with glyceraldehyde 3-phosphate dehydrogenase (GAPDH) as reference gene. […]
(In general: Quantitative PCR measures a nucleic acid by following its amplification.)

In data set [3] the target is T1, human FXR:retinoid X receptor (RXR) heterodimer (Homo sapiens, UniProt Q96RI1).
T1 construct: pcDNA3-hFXR[32] and pSG5-hRXR[33] served for receptor overexpression in the full-length FXR assay; expressed in transfected cells; host or cells: HeLa
T1 sequence (P19793 whole entry): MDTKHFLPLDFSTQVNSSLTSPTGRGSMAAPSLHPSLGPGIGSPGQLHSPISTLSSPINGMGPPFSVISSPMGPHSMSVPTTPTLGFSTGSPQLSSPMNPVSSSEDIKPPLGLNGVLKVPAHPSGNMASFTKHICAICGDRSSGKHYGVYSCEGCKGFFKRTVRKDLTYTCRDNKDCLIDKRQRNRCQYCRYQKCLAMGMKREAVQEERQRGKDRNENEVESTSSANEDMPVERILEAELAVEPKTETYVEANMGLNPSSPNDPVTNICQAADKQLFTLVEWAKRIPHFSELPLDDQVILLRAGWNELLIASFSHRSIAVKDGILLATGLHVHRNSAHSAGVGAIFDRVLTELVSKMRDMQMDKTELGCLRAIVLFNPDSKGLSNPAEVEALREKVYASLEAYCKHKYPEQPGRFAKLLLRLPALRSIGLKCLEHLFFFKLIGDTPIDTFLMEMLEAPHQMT
T1 sequence (Q96RI1 whole entry): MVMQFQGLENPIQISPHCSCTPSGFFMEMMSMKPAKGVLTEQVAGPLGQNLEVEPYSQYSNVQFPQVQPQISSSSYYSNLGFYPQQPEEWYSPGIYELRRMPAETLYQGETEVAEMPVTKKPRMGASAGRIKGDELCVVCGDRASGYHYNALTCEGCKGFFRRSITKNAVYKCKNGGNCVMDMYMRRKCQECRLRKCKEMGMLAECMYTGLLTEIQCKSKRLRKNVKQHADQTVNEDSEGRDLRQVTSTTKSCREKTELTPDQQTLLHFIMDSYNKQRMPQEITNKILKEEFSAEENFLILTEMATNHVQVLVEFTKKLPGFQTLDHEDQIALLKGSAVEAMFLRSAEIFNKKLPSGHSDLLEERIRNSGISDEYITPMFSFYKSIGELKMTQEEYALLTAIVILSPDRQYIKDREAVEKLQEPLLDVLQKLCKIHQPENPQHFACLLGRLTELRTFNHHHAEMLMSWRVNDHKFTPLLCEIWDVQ
The data set can be described thus: Full-length FXR reporter gene assay (BSEP response element) in HeLa cells. Format: cell-based. Details: Emax: dose or concentration left out as unconfirmed.

The target in data set [4] is T2, human PPARα ligand-binding domain (Gal4 chimera) (Homo sapiens, UniProt Q07869).
T2 construct: coding for the hinge region and LBD of the canonical isoform of the respective nuclear receptor; expressed in transfected cells; host or cells: HEK293T
T2 sequence (Q07869 239-466 limits assumed): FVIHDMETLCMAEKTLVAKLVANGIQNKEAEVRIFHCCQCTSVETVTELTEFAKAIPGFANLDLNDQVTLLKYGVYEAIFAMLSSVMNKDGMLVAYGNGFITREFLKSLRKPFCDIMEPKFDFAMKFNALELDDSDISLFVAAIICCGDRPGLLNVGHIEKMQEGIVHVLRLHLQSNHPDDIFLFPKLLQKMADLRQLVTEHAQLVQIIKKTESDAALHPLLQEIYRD
In words: Gal4 hybrid reporter gene assay, PPARα. On the set-up: Emax: dose or concentration left out as unconfirmed. It is filed as cell-based. Background: Reporter assays use an easily measured gene product as a stand-in for the process of interest.

The nature of data set [5]: Microsomal stability assay. It is filed as in vitro ADME, rat.
The mark [6] stands for this setting: 10 μM, rat liver microsomes, 37 °C, 41 n = 3, 7-EC n = 1.

The term EC50 denotes the concentration needed to bring the measured effect to its halfway point.

SMILES strings stand for the structures.

Regarding `CC[C@H]1[C@@H](O)[C@@H]2[C@H](CC[C@]3(C)[C@@H]([C@H](C)CCC(=O)O)CC[C@@H]23)[C@@]2(C)CC[C@@H](O)C[C@@H]12` [OCA, 6α-ethylchenodeoxycholic acid, reference compound], the anti-steatotic effect result in data set [1] (OCA 30 mg/kg, OCA/elafibranor 30 mg/kg + 10 mg/kg, elafibranor 10 mg/kg) is listed as “marked reductions in steatosis”. Besides, the anti-fibrotic activity result in data set [1] (equivalent, previously reported study) is given as “only weak anti-fibrotic activity compared to vehicle”.
`CC(C)(C)c1ccc(C(=O)Nc2cccc(CCC(=O)O)c2)c(NC(=O)c2ccc(-c3ccco3)cc2)c1` [compound 41, 3-(3-[4-{tert-Butyl}-2-{4-(2-furyl)}benzamido]phenyl)propanoic acid]: the “upregulation of PCK and GLUT3 mRNA” value in data set [2] is recorded as “comparable efficacy as the selective PPARδ agonist L165,041”. Moreover, the “effect on LPL expression” value in data set [2] (compared with L165,041) is given as “less pronounced”. The Emax in data set [3] (HeLa, read-out: max. rel. act. FXR) is 19%; in data set [4] (read-out: max. rel. act. PPARα), 72%. For the same molecule, the EC50 in data set [3] (HeLa, mean ± SEM, n = 3, read-out: EC50 [μM] FXR) was 0.015 ± 0.002 µM; in data set [4] (EC50 [μM] PPARα, HEK293T, mean ± SEM, n = 3), 0.17 ± 0.04 µM; in data set [4] (PPARα EC50, as stated in text), 0.168 µM. In addition, the “FXR activation efficacy compared to OCA” value in data set [3] (reporter gene assay and mRNA expression levels) is “approximately 1/5”. Moreover, the “percent of remaining compound, 15 min” value in data set [5] (setting [6]) was 95 ± 3%. In addition, the “percent of remaining compound, 30 min” value in data set [5] (setting [6]) came to 95 ± 2%. For the same molecule, the “percent of remaining compound, 60 min” value in data set [5] (setting [6]) stood at 93 ± 2%. Besides, the “stability against microsomal degradation” value in data set [5] (in words) is on record as “very high stability against microsomal degradation”.

The record behind these values is publication PMC9814779, “A triple farnesoid X receptor and peroxisome proliferator-activated receptor α/δ activator reverses hepatic fibrosis in diet-induced NASH in mice” (Communications Chemistry, 2020).
